What was measured:
[1] = Excretion of radioactivity (0-384h) in urine following 10 day repeated oral administration of [14C] aliskiren hemifumarate at 100 mg.Kg-1 level studied in rat; type: ADME, organism-based, Albino HAN:WIST; details: in vivo
[2] = Cmax of radioactivity following repeated oral administration of [14C] aliskiren hemifumarate at 100 mg.Kg-1 level studied after 2h of dosing on day 1 in rat; type: ADME, organism-based, Albino HAN:WIST; details: in vivo, read-out: Cmax(1)
[3] = Concentration of radioactivity in the colon wall following repeated oral administration of [14C] aliskiren hemifumarate at 100 mg.Kg-1 level studied at 2h after 7th dose in rat; type: ADME, organism-based, Albino HAN:WIST; details: in vivo
Cytochrome P450 2D6 = Cytochrome P450 2D6 (Homo sapiens, UniProt P10635); experiment: Activity of human recombinant CYP2D6 assessed as enzyme contribution (% total relative CL) towards [14C]SPP100 hemifumarate metabolism in human liver microsome; type: ADME; details: microsomes
[4] = Excretion of radioactivity (24-48h) in urine following single intravenous dose of 10 mg.Kg-1 [14C] aliskiren hemifumarate in mouse; type: ADME, organism-based, TgRasH2; details: in vivo
[5] = Excretion of radioactivity (24-48h) in faeces following single oral dose of 100 mg.Kg-1 [14C] aliskiren hemifumarate in rat; type: ADME, organism-based, Albino HAN:WIST, Feces; details: in vivo
[6] = Tmax of [14C] aliskiren hemifumarate following single intravenous dose of [14C] aliskiren hemifumarate at 10 mg.Kg-1 level in mouse; type: ADME, organism-based, TgRasH2, Plasma; details: in vivo
[7] = Faecal elimination of aliskiren following single intravenous dose of [14C] aliskiren hemifumarate at 10 mg.Kg-1 level in mouse; type: ADME, organism-based, TgRasH2, Feces; details: in vivo
[8] = Excretion of radioactivity (0-24h) in faeces following single intravenous dose of 10 mg.Kg-1 [14C] aliskiren hemifumarate in mouse; type: ADME, organism-based, TgRasH2, Feces; details: in vivo
[9] = Excretion (0-168h) of 14C-radioactivity in urine following single oral dose of 300 mg [14C]SPP100 studied in healthy men; type: ADME, organism-based; details: human, in vivo, at 300 mg
[10] = Apparent Km value of metabolism of [14C] aliskiren hemifumarate studied in human liver microsome; type: ADME; details: microsomes
[11] = Mean excretion of radioactivity (24-48h) in urine and faeces following single oral dose of 500 mg.Kg-1 [14C] aliskiren hemifumarate in mouse; type: ADME, organism-based, TgRasH2, Urine/Feces; details: in vivo
[12] = Mean excretion of radioactivity (48-72h) in urine and faeces following single intravenous dose of 10 mg.Kg-1 [14C] aliskiren hemifumarate in mouse; type: ADME, organism-based, TgRasH2, Urine/Feces; details: in vivo
[13] = AUC of aliskiren hemifumarate following 8 day once-daily dosing of SPP100B oral solution at 160 mg level studied on day 8 in men; type: ADME, organism-based; details: male, human, plasma
[14] = AUC (0-24h) of aliskiren hemifumarate following 4 week oral dietary dosing of aliskiren hemifumarate at 1500 mg.Kg-1 level in male mouse; type: ADME, organism-based; details: CB6F1-TGrasH2, mouse, plasma
[15] = Tmax of aliskiren hemifumarate following 2 week oral dosing of aliskiren hemifumarate at 100 mg.Kg-1 level studied on day 1 in male Callithrix jacchus; type: ADME, organism-based; details: marmoset, plasma
[16] = Cmax of aliskiren hemifumarate following single dosing of SPP100B oral solution at 40 mg level studied on day 1 in men; type: ADME, organism-based; details: male, human, plasma
[17] = Effect of 2 week oral dosing of aliskiren hemifumarate at 100 mg.Kg-1 level on plasma alkaline phosphatase level in female Callithrix jacchus; type: toxicity, organism-based; details: marmoset, 336 h
[18] = Cmaxspec of aliskiren hemifumarate following 2 week oral dosing of aliskiren hemifumarate at 10 mg.Kg-1 level studied on day 1 in male Callithrix jacchus; type: ADME, organism-based, Plasma; details: marmoset, in vivo, 336 h
[19] = Tmax of aliskiren hemifumarate following 4 week oral dietary dosing of aliskiren hemifumarate at 1500 mg.Kg-1 level in male mouse; type: ADME, organism-based; details: CB6F1-TGrasH2, mouse, in vivo
[20] = Effect of 2 week oral dosing of aliskiren hemifumarate at 50 mg.Kg-1 level on plasma creatinine level in female Callithrix jacchus; type: toxicity, organism-based; details: marmoset, 336 h
[21] = AUC of unlabeled aliskiren hemifumarate following single intravenous dose of aliskiren hemifumarate at 10 mg.Kg-1 level in mouse; type: ADME, organism-based; details: TgRasH2, mouse, plasma
[22] = Cmax/dose (0-96h) of unlabeled aliskiren hemifumarate following oral administration of aliskiren hemifumarate at 100 mg.Kg-1 level in rat; type: ADME, organism-based, Albino HAN:WIST, Plasma; details: in vivo
[23] = Cmax/dose of aliskiren hemifumarate following 4 week oral dietary dosing of aliskiren hemifumarate at 500 mg.Kg-1 level in female mouse; type: ADME, organism-based, CB6F1-TGrasH2; details: in vivo, 672 h
[24] = Plasma clearance (0-96h) of unlabeled aliskiren hemifumarate following intravenous administration of aliskiren hemifumarate at 10 mg.Kg-1 level in rat; type: ADME, organism-based, Albino HAN:WIST; details: in vivo
[25] = Blood clearance (0-168h) of unlabeled aliskiren hemifumarate following single intravenous administration of aliskiren hemifumarate at 1 mg.Kg-1 level in marmoset; type: ADME, organism-based, Callithrix jacchus; details: in vivo
[26] = Tmax of aliskiren hemifumarate following 2 week oral dosing of aliskiren hemifumarate at 50 mg.Kg-1 level studied on day 14 in female Callithrix jacchus; type: ADME, organism-based; details: marmoset, plasma
[27] = Cmax of aliskiren hemifumarate following 2 week oral dosing of aliskiren hemifumarate at 50 mg.Kg-1 level studied on day 1 in female Callithrix jacchus; type: ADME, organism-based; details: marmoset, plasma
[28] = Cmaxspec of aliskiren hemifumarate following 2 week oral dosing of aliskiren hemifumarate at 50 mg.Kg-1 level studied on day 1 in male Callithrix jacchus; type: ADME, organism-based, Plasma; details: marmoset, in vivo, 336 h
[29] = Effect of 4 week oral dietary dosing of aliskiren hemifumarate at 1500 mg.Kg-1 level on density of uterine gland in female mouse; type: toxicity, organism-based, CB6F1-TGrasH2, Endometrial gland; details: in vivo, 672 h
[30] = Terminal elimination half-life of SPP100 following single oral dose of SPP100 300 mg capsule studied in healthy human; type: ADME, organism-based; details: plasma
[31] = Oral clearance of SPP100 following single oral dose of SPP100 600 mg capsule studied in healthy human; type: ADME, organism-based; details: plasma
[32] = Excretion (0-72h) of aliskiren in faeces following intravenous administration of [14C] aliskiren hemifumarate at 1 mg.Kg-1 level in marmoset; type: ADME, organism-based, Callithrix jacchus, Feces; details: in vivo
CYP2C9 = CYP2C9 (Homo sapiens, UniProt P11712); experiment: Inhibitory activity of 20 uM SPP100 on 259 Pmoles of cDNA-derived CYP2C9 enzyme in microsome prepared from human lymphoblastoid cell line; type: ADME, microsomes; parameters: conc 20 uM, interact cpd conc 6 uM; details: probe diclofenac
CYP2C19 = CYP2C19 (Homo sapiens, UniProt P33261); experiment: Inhibition of CYP2C19 in human liver microsomes from 10 healthy donors at 200 uM aliskiren (SPP100); type: ADME, Microsome; parameters: conc 200 uM; details: probe S-mephenytoin (4'-hydroxylation)
[33] = % of radioactivity recovered as aliskiren in urine following oral administration of [14C] aliskiren hemifumarate at 100 mg.Kg-1 level in rat; type: ADME, organism-based, Albino HAN:WIST; details: in vivo
[34] = Excretion (0-168h) of aliskiren in urine following oral administration of [14C] aliskiren hemifumarate at 3 mg.Kg-1 level in marmoset; type: ADME, organism-based, Callithrix jacchus; details: in vivo

Chain of CYP2C19 (P33261 whole entry): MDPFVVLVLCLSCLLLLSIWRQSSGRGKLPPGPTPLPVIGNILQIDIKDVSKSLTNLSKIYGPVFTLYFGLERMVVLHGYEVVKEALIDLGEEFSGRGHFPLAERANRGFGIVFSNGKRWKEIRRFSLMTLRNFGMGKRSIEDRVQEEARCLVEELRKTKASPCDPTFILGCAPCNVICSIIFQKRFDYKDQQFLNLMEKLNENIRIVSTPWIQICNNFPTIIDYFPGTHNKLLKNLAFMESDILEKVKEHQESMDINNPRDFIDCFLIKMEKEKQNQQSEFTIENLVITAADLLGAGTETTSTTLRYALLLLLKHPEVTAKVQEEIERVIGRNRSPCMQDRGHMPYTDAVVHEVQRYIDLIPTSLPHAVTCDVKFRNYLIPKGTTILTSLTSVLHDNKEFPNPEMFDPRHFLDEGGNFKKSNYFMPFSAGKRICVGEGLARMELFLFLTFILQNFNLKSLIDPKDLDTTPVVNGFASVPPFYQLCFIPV
Chain of CYP2C9 (P11712 whole entry): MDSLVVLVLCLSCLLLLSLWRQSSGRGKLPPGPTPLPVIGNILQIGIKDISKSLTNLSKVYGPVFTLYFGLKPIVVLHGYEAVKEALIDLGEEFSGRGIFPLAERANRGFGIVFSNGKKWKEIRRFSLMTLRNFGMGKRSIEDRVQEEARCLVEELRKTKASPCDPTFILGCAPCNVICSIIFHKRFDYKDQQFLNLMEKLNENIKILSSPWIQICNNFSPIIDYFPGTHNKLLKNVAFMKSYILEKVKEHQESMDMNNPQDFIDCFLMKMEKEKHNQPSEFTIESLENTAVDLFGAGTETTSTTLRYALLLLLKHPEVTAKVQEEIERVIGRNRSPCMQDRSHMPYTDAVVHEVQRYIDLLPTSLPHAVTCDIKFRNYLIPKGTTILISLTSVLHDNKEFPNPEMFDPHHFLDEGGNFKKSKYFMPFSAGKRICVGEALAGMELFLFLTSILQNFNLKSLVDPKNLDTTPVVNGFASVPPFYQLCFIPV
Chain of Cytochrome P450 2D6 (P10635 whole entry): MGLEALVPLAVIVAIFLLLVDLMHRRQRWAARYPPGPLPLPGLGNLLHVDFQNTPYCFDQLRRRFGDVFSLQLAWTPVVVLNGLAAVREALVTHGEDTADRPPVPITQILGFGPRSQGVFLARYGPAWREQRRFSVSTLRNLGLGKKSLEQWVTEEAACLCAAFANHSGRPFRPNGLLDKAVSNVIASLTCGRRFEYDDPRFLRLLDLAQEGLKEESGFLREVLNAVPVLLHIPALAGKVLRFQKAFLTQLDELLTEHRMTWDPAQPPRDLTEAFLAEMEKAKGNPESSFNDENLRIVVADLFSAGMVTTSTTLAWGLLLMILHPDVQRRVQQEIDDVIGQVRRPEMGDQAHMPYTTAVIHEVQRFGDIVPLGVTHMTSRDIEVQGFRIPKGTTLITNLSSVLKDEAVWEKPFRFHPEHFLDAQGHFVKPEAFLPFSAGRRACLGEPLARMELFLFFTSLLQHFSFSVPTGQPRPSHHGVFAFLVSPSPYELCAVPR

COCCCOc1cc(C[C@@H](C[C@H](N)[C@@H](O)C[C@H](C(=O)NCC([14CH3])([14CH3])C(N)=O)C(C)C)C(C)C)ccc1OC.O=C(O)/C=C/C(=O)O
Radiolabel recovery [1]: 0.3%
Cmax [2]: 1090 nM
Radiolabel recovery [3]: OUTCOME = Observed, VALUE = Highest radioactivity concentration was observed
Activity (Cytochrome P450 2D6): 0.38%
Radiolabel recovery [4]: 9.49%
Radiolabel recovery [5]: 0.68%
Tmax [6]: 4.98 min
Radiolabel recovery [7]: OUTCOME = Observed, VALUE = Elimination of aliskiren occurred mainly via the biliary or faecal route
Radiolabel recovery [8]: 84.68%
Radiolabel recovery [9]: 0.6%
Km [10]: 43.8 µM
Radiolabel recovery [11]: 10.51%
Radiolabel recovery [12]: 0.9%

COCCCOc1cc(C[C@@H](C[C@H](N)[C@@H](O)C[C@H](C(=O)NCC(C)(C)C(N)=O)C(C)C)C(C)C)ccc1OC.COCCCOc1cc(C[C@@H](C[C@H](N)[C@@H](O)C[C@H](C(=O)NCC(C)(C)C(N)=O)C(C)C)C(C)C)ccc1OC.O=C(O)/C=C/C(=O)O [ALISKIREN FUMARATE]
AUC at 192 h [13]: 363 ng·h/mL
AUC(0-t) at 24 h [14]: 4140 ng·h/mL
Tmax [15]: 1 h
Cmax [16]: 5.1 ng/mL
ALP_CHANGE_TO [17]: OUTCOME = 2-fold increase over initial values. No animals died during the study.
Cmax normalised [18]: 0.396 (ug/ml)/(mg/kg)
Tmax [19]: 3 h
CREAT_CHANGE_BY [20]: 130%
AUC [21]: 9.03 µM·h
Cmax normalised [22]: 0.0027 (umol/L)/(mg/kg)
Cmax normalised [23]: 0.128 (ng/mL)/(mg/kg/day)
Plasma clearance [24]: 1.2 L·h/kg
Blood clearance [25]: 0.055 L·h/kg
Tmax [26]: 1 h
Cmax [27]: 8830 ng/mL
Cmax normalised [28]: 0.126 (ug/ml)/(mg/kg)
Change in density of uterine gland [29]: OUTCOME = Decreased. No animals died during the study.

COCCCOc1cc(C[C@@H](C[C@H](N)[C@@H](O)C[C@H](C(=O)NCC(C)(C)C(N)=O)C(C)C)C(C)C)ccc1OC
half-life [30]: 37 h
CL/F [31]: 3700 mL/min
Compound recovery [32]: 36%
inhibition at 20 µM (CYP2C9): 0.9%
inhibition at 200 µM (CYP2C19): 42.5%
Compound recovery [33]: <= 2%
Compound recovery [34]: 2.3%
